In patent US20250179103A1, “6-OXODECAHYDROPYRROLO[1,2-A][1,5]DIAZOCINE AND 6-OXODECAHYDRO-4H-PYRROLO[2,1-D][1,5]THIAZOCINE DERIVATIVES AS STAT3 AND STAT6 MODULATORS FOR THE TREATMENT OF CANCER AND INFLAMMATORY CONDITIONS” (Recludix Pharma, Inc., priority 2022, published 2025):

Tested on: pY641-STAT6 in Peripheral Blood Mononuclear Cells (PBMC)
Test: MSD-pSTAT-PBMC Assay (pSTAT6, IL-4 stimulated)
Assay type: cell-based, Human
Conditions: Homo sapiens, compound 3 hrs, then 1 ng/mL IL-4 for 10 min
How it was run: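 Phospho-STAT readout used MSD electrochemiluminescence with total STAT3 or STAT6 capture in lysates of cryopreserved human PBMCs. Cells had 3 h compound exposure before a 10 min cytokine pulse: IL-6 10 ng/mL for pSTAT3, IL-4 1 ng/mL for pSTAT6. IC50 came from background-subtracted, DMSO-normalised signal, with categories A≤100 nM up to D>3 μM.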

SMILES	IC50
Cc1ccc2onc(C(=O)N3CC[C@H]4CC[C@@H](C(=O)N5C[C@@H](c6ccn(C)c(=O)c6)CC56CC6)N4C(=O)[C@@H](NC(=O)c4ccc5ccc(C(F)(F)P(=O)(OCCSC(=O)C(C)(C)C)OCCSC(=O)C(C)(C)C)cc5c4)C3)c2c1 [Compound 436, S,S′-((((difluoro(7-(((5S,8S,10aR)-8-((R)-6-(1-methyl-2-oxo-1,2-dihydropyridin-4-yl)-4-azaspiro[2.4]heptane-4-carbonyl)-3-(5-methylbenzo [d]isoxazole-3-carbonyl)-6-oxodeca-hydropyrrolo [1,2-a][1,5]diazocin-5-yl)carbamoyl)naphthalen-2-yl)methyl)phosphoryl)bis (oxy))bis (ethane-2,1-diyl))bis(2,2-dimethyl-propanethioate)]	≤ 100 nM
CCCOC(=O)[C@H](C)NP(=O)(Oc1ccccc1)C(F)c1ccc2ccc(C(=O)N[C@H]3CN(C(=O)c4noc5ccc(OC)cc45)CC[C@H]4CC[C@@H](C(=O)N5CCOCC5)N4C3=O)cc2c1 (stereo partly drawn) [Compound 428, propyl ((fluoro(7-(((5S,8S,10aR)-3-(5-methoxybenzo [d]isoxazole-3-carbonyl)-8-(morpholine-4-carbonyl)-6-oxodecahydro-pyrrolo [1,2-a][1,5]diazocin-5-yl)carbamoyl)naphthalen-2-yl)methyl) (phenoxy)phosphoryl)-L-alaninate]	100 to 1000 nM
CCCOC(=O)[C@H](C)NP(=O)(Oc1ccccc1)[C@@H](F)c1ccc2ccc(C(=O)N[C@H]3CN(C(=O)c4noc5ccc(C)cc45)CC[C@H]4CC[C@@H](C(=O)N5CC6CCC(C5)O6)N4C3=O)cc2c1 (stereo partly drawn) [Compound 416, propyl (((1R)-(7-(((5S,8S,10aR)-8-(8-oxa-3-azabicyclo [3.2.1]octane-3-carbonyl)-3-(5-methylbenzo [d]isoxazole-3-carbonyl)-6-oxodeca-hydropyrrolo [1,2-a][1,5]diazocin-5-yl)carbamoyl)naphthalen-2-yl)fluoromethyl) (phenoxy)phosphoryl)-L-alaninate]	≤ 100 nM
CCCOC(=O)[C@H](C)NP(=O)(Oc1ccccc1)C(F)c1ccc2ccc(C(=O)N[C@H]3CN(C(=O)c4ncn5ccccc45)CC[C@H]4CC[C@@H](C(=O)N5CCOCC5)N4C3=O)cc2c1 (stereo partly drawn) [Compound 423, propyl ((fluoro(7-(((5S,8S,10aR)-3-(imidazo[1,5-a]pyridine-1-carbonyl)-8-(morpholine-4-carbonyl)-6-oxodecahydro-pyrrolo [1,2-a][1,5]diazocin-5-yl)carbamoyl)naphthalen-2-yl)methyl) (phenoxy)phosphoryl)-L-alaninate]	> 3000 nM
CCCOC(=O)[C@H](C)NP(=O)(Oc1ccccc1)C(F)c1ccc2ccc(C(=O)N[C@H]3CN(C(=O)c4noc5ccc(C)cc45)CC[C@H]4CC[C@@H](C(=O)N5CCN(c6nsc7ccccc67)CC5)N4C3=O)cc2c1 (stereo partly drawn) [Compound 411, propyl (((7-(((5S,8S,10aR)-8-(4-(benzo[d]isothiazol-3-yl)piperazine-1-carbonyl)-3-(5-methylbenzo [d]isoxazole-3-carbonyl)-6-oxodeca-hydropyrrolo [1,2-a][1,5]diazocin-5-yl)carbamoyl)naphthalen-2-yl)fluoromethyl) (phenoxy)phosphoryl)-L-alaninate]	> 3000 nM
CCCOC(=O)[C@H](C)NP(=O)(Oc1ccccc1)C(F)c1ccc2ccc(C(=O)N[C@H]3CN(C(=O)c4cc5ncccn5n4)CC[C@H]4CC[C@@H](C(=O)N5CCOCC5)N4C3=O)cc2c1 (stereo partly drawn) [Compound 426, propyl ((fluoro(7-(((5S,8S,10aR)-8-(morpholine-4-carbonyl)-6-oxo-3-(pyrazolo[1,5-a]pyrimidine-2-carbonyl)decahydro-pyrrolo [1,2-a][1,5]diazocin-5-yl)carbamoyl)naphthalen-2-yl)methyl) (phenoxy)phosphoryl)-L-alaninate]	> 3000 nM
CCCOC(=O)[C@H](C)NP(=O)(Oc1ccccc1)C(F)c1ccc2ccc(C(=O)N[C@H]3CN(C(=O)c4noc5ccc(C)cc45)CC[C@H]4CC[C@@H](C(=O)N5CCOC[C@@H]5c5ccccc5)N4C3=O)cc2c1 (stereo partly drawn) [Compound 412, propyl ((fluoro(7-(((5S,8S,10aR)-3-(5-methylbenzo [d]isoxazole-3-carbonyl)-6-oxo-8-((S)-3-phenyl-morpholine-4-carbonyl)decahydro-pyrrolo [1,2-a][1,5]diazocin-5-yl)carbamoyl)naphthalen-2-yl)methyl) (phenoxy)phosphoryl)-L-alaninate]	100 to 1000 nM
CCCOC(=O)[C@H](C)NP(=O)(Oc1ccccc1)C(F)c1ccc2ccc(C(=O)N[C@H]3CN(C(C)=O)CC[C@H]4CC[C@@H](C(=O)N5CC(c6ccn(C)c(=O)c6)CC56CC6)N4C3=O)cc2c1 (stereo partly drawn) [Compound 406, propyl (((7-(((5S,8S,10aR)-3-acetyl-8-(6-(1-methyl-2-oxo-1,2-dihydro-pyridin-4-yl)-4-azaspiro[2.4]heptane-4-carbonyl)-6-oxodeca-hydropyrrolo [1,2-a] [1,5]diazocin-5-yl)carbamoyl)naphthalen-2-yl)fluoromethyl) (phenoxy)phosphoryl)-L-alaninate]	100 to 1000 nM
CCCOC(=O)[C@H](C)NP(=O)(Oc1ccccc1)C(F)c1ccc2ccc(C(=O)N[C@H]3CN(S(=O)(=O)CCC)CC[C@H]4CC[C@@H](C(=O)N5CCOCC5)N4C3=O)cc2c1 (stereo partly drawn) [Compound 427, propyl ((fluoro(7-(((5S,8S,10aR)-8-(morpholine-4-carbonyl)-6-oxo-3-(propylsulfonyl)decahydro-pyrrolo [1,2-a][1,5]diazocin-5-yl)carbamoyl)naphthalen-2-yl)methyl) (phenoxy)phosphoryl)-L-alaninate]	> 3000 nM
CCCOC(=O)[C@H](C)NP(=O)(Oc1ccccc1)C(F)c1ccc2ccc(C(=O)N[C@H]3CN(C(=O)c4noc5ccc(C)cc45)CC[C@H]4CC[C@@H](C(=O)N5CCOC(Cc6ccccc6)C5)N4C3=O)cc2c1 (stereo partly drawn) [Compound 415, propyl (((7-(((5S,8S,10aR)-8-(2-benzyl-morpholine-4-carbonyl)-3-(5-methylbenzo [d]isoxazole-3-carbonyl)-6-oxodeca-hydropyrrolo [1,2-a][1,5]diazocin-5-yl)carbamoyl)naphthalen-2-yl)fluoromethyl) (phenoxy)phosphoryl)-L-alaninate]	100 to 1000 nM
CCCOC(=O)[C@H](C)NP(=O)(Oc1ccccc1)C(F)c1ccc2ccc(C(=O)N[C@H]3CN(C(=O)c4noc5ccc(Cl)cc45)CC[C@H]4CC[C@@H](C(=O)N5CCOCC5)N4C3=O)cc2c1 (stereo partly drawn) [Compound 430, propyl (((7-(((5S,8S,10aR)-3-(5-chlorobenzo[d]isoxazole-3-carbonyl)-8-(morpholine-4-carbonyl)-6-oxodecahydro-pyrrolo [1,2-a][1,5]diazocin-5-yl)carbamoyl)naphthalen-2-yl)fluoromethyl) (phenoxy)phosphoryl)-L-alaninate]	≤ 100 nM
Cc1ccc2[nH]nc(C(=O)N3CC[C@H]4CC[C@@H](C(=O)N5C[C@H](c6cc[nH]c(=O)c6)CC56CC6)N4C(=O)[C@@H](NC(=O)c4ccc5ccc(C(F)(F)P(=O)(OCCSC(=O)CC(C)C)OCCSC(=O)CC(C)C)cc5c4)C3)c2c1 [Compound 431, S,S′-((((difluoro(7-(((5S,8S,10aR)-3-(5-methyl-1H-indazole-3-carbonyl)-6-oxo-8-(6-(2-oxo-1,2-dihydropyridin-4-y1)-4-azaspiro[2.4]heptane-4-carbonyl)dec-ahydropyrrolo [1,2-a][1,5]diazocin-5-yl)carbamoyl)naphthalen-2-yl)methyl)phosphoryl)bis(oxy))bis(ethane-2,1-diyl)) bis(3-methylbutane thioate)]	≤ 100 nM
CCCOC(=O)[C@H](C)NP(=O)(Oc1ccccc1)C(F)c1ccc2ccc(C(=O)N[C@H]3CN(C(C)=O)CC[C@H]4CC[C@@H](C(=O)N5CCC(c6cccnc6)C5)N4C3=O)cc2c1 (stereo partly drawn) [Compound 409, propyl (((7-(((5S,8S,10aR)-3-acetyl-6-oxo-8-(3-(pyridin-3-yl)pyrrolidine-1-carbonyl)decahydropyrrolo [1,2-a] [1,5]diazocin-5-yl)carbamoyl)naphthalen-2-yl)fluoromethyl) (phenoxy)phosphoryl)-L-alaninate]	1000 to 3000 nM

Tested on: pY705-STAT3 in Peripheral Blood Mononuclear Cells (PBMC)
Test: MSD-pSTAT-PBMC Assay (pSTAT3, IL-6 stimulated)
Assay type: cell-based, Human
Conditions: Homo sapiens, compound 3 hrs, then 10 ng/mL IL-6 for 10 min
Text: Cryopreserved Peripheral Blood Mononuclear Cells (PBMC) are from AllCells. Recombinant Human IL-4 and IL-6 are from Peprotech. Mouse monoclonal anti-STAT3 antibody, rabbit monoclonal anti-pY705-STAT3 antibody, rabbit monoclonal Anti-pY641-STAT6 antibody, and lysis buffer are from Cell Signaling Technology (CST). Mouse monoclonal anti-STAT6 antibody is from BioLegend. Assay plates, blocker, and anti-rabbit secondary antibody are from Meso Scale Discovery (MSD).
Cryopreserved PBMCs were thawed out and allowed to recover overnight in IMDM+10% heat-inactivated FBS prior to plating 50,000 (STAT3) or 25,000 (STAT6) cells per well in 96-well U-bottom tissue culture plates. Cells were treated with compound for 3 hrs, then stimulated with 10 ng/mL IL-6 (STAT3) or 1 ng/mL IL-4 (STAT6) for 10 min. Cells were then spun down and washed with ice-cold PBS prior to lysing the cell pellet with 1× lysis buffer (CST) with 1×HALT protease and phosphatase inhibitor cocktail (Thermo). Lysates were transferred to and incubated overnight at 4° C. with shaking in QuickPlex 96-well high bind assay plates (MSD) pre-coated overnight with 30 μL per well of 0.6 μg/mL mouse monoclonal anti-STAT3 antibody (STAT3) or 2 μg/mL mouse monoclonal anti-STAT6 antibody (STAT6) in 1×PBS, and pre-blocked for 1 hour with 3% Blocker-A (MSD). Captured protein in the assay plates were then washed and probed with 25 μL per well of 0.25 μg/ml rabbit monoclonal anti-pY705-STAT3 antibody (STAT3) or […] rabbit monoclonal Anti-pY641-STAT6 antibody (STAT6) in 1% Blocker-A for 1 hour at room temperature with shaking, then washed and probed with 25 ul per well of 1 ug/ml Sulfo-TAG Labeled Goat Anti-Rabbit Antibody (MSD) in 1% Blocker-A for 1 hour at room temperature with shaking. Assay plates were then washed and 150 μL of 1× Read Buffer-T (MSD) was added to each well prior to reading on an SQ120 MSD Plate Reader. Assay signal from each sample was subtracted by the signal from unstimulated control wells and normalized to DMSO control wells. IC50 values were calculated using Graph Pad Prism Dose-Response Nonlinear Regression with variable slope. For both pSTAT3 and pSTAT6 A=≤100 nM; B=>100-1000 nM; C=>1000-3000 nM; and D=>3 μM.

SMILES	IC50
CC(C)OC(=O)[C@H](C)NP(=O)(Cc1ccc2sc(C(=O)N[C@H]3CN(Cc4ccn5ccnc5c4)CC[C@H]4CC[C@@H](C(=O)N5CC(c6cccnc6)C5)N4C3=O)cc2c1)NCc1ccccc1 (some centres unmarked) [Compound 333]	> 3000 nM
